Laboratory results reported in paper PMC11311990, “Identification of Ribonuclease Inhibitors for the Control of Pathogenic Bacteria” (International Journal of Molecular Sciences, 2024).

What was measured:
RNase R = biological target: T1, RNase R (Escherichia coli, UniProt P21499); format: biochemical; settings: 10 mM compound, 10 nM enzyme, 10 nM poly(A), 1 mM MgCl2, 100 mM KCl, pH 8, 37 °C, DMSO
T1 construct: gene rnr; full-length recombinant, N-terminal His tag (pET15b derivative), expressed in E. coli BL21(DE3), IMAC purified
T1 sequence (P21499 2-813): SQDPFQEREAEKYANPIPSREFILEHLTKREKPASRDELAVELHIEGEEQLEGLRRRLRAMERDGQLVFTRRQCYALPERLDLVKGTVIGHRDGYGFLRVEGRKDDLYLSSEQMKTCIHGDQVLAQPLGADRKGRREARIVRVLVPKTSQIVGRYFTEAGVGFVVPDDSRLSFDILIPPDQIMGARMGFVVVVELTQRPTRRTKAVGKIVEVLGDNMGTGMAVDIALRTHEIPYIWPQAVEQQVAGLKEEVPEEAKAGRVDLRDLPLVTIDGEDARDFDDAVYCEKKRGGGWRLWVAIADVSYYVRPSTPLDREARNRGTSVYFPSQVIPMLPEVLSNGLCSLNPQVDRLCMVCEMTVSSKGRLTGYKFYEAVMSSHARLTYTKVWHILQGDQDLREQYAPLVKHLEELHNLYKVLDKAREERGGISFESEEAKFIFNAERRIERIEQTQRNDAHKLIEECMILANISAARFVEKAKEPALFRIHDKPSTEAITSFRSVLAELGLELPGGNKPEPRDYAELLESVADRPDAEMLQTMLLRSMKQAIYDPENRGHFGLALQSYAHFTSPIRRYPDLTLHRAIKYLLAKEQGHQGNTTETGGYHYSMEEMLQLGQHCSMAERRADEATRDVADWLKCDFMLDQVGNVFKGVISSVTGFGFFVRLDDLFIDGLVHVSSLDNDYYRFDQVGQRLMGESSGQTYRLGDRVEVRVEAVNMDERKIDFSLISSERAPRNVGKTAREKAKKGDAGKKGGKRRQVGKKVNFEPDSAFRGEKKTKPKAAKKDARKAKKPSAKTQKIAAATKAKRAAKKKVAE

RNase II = biological target: T2, RNase II (Escherichia coli, UniProt P30850); format: biochemical; settings: 10 mM compound, 10 nM enzyme, 10 nM poly(A), 1 mM MgCl2, 100 mM KCl, pH 8, 37 °C, DMSO
T2 construct: gene rnb; full-length recombinant, N-terminal His tag (pET15b derivative), expressed in E. coli BL21(DE3), IMAC purified
T2 sequence (P30850 whole entry): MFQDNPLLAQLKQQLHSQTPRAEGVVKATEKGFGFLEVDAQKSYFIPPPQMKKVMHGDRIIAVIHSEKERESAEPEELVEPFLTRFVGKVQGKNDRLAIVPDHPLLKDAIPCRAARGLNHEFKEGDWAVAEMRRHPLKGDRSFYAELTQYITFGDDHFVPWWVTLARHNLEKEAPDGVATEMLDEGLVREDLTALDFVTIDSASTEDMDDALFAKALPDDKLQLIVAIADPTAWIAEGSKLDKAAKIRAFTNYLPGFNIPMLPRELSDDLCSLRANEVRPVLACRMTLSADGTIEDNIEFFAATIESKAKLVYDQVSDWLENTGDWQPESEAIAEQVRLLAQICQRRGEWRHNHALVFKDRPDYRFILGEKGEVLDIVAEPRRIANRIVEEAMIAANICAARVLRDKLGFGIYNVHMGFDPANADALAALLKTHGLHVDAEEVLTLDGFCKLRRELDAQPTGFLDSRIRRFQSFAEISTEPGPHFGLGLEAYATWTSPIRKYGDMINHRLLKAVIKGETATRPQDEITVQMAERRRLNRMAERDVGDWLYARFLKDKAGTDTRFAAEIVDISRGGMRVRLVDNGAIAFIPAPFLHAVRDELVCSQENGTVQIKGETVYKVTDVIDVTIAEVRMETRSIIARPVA

SMILES	gel exoribonuclease assay, 5'-32P 35-nt poly(A) (RNase R)	gel exoribonuclease assay, 5'-32P 35-nt poly(A) (RNase II)
Cc1nc(S)nc(O)c1Oc1cccc(C(F)(F)F)c1 [SPB04215, 2-mercapto-6-methyl-5-[3-(trifluoromethyl)phenoxy]pyrimidin-4-ol]	SPB04215 and SPB04462 compounds were also effective in inhibiting RNase R activity	with RNase II being also affected, but to a lesser extent
CC(=O)Nc1nc(C)c(Oc2cccc(C(F)(F)F)c2)c(O)n1 [SPB04462, N1-{4-hydroxy-6-methyl-5-[3-(trifluoromethyl)phenoxy]pyrimidin-2-yl}acetamide]	SPB04215 and SPB04462 compounds were also effective in inhibiting RNase R activity	with RNase II being also affected, but to a lesser extent
